# Assays:
# Experiment in all cases: stopped-flow CO2 hydrase assay
# Type in all cases: biochemical
# [1] = target: T1, VchCAβ (Vibrio cholerae, UniProt Q9KUD6)
# T1 construct: gene VC_0586
# [2] = target: T2, VchCAα (Vibrio cholerae, UniProt Q9KMP6)
# T2 construct: gene VC_A0274
# [3] = target: T3, hCA II (Homo sapiens, UniProt P00918)
# T3 construct: gene CA2; recombinant, obtained in-house; cytosolic isoform
# Description: stopped-flow CO2 hydrase assay on hCA II
# [4] = target: T4, hCA I (Homo sapiens, UniProt P00915)
# T4 construct: gene CA1; recombinant, obtained in-house; cytosolic isoform
# T4 sequence (P00915 2-261): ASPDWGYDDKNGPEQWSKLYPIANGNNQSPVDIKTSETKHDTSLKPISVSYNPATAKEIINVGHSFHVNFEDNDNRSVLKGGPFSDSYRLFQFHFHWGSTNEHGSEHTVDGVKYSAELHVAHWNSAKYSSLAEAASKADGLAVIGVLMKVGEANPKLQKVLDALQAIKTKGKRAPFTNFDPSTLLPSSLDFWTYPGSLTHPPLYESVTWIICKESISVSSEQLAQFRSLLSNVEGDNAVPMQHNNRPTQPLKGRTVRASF
# Description: stopped-flow CO2 hydrase assay on hCA I
# T2 sequence (Q9KMP6 21-239 limits assumed): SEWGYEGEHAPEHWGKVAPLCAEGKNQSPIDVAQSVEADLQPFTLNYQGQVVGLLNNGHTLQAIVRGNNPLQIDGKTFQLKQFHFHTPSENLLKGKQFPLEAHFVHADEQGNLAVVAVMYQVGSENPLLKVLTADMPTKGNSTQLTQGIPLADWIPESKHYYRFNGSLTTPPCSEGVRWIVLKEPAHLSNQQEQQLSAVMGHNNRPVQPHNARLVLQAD
# T1 sequence (Q9KUD6 1-222): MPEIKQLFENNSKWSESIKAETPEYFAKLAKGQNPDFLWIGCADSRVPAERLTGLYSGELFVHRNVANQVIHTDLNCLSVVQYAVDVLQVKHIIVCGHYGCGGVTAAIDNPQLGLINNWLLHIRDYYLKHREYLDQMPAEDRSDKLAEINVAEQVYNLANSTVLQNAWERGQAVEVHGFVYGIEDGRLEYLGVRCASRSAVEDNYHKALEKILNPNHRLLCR
Compound,Ki [1],Ki [2],Ki [3],Ki [4]
"NS(=O)(=O)Nc1cccc(S(=O)(=O)NCC(=O)N2CCN(C(c3ccccc3)c3ccccc3)CC2)c1 [6d, N-(2-(4-Benzhydrylpiperazin-1-yl)-2-oxoethyl)-3-(sulfamoylamino)benzenesulfonamide]",3780 nM,95.7 nM,396 nM,58.1 nM
"NS(=O)(=O)Nc1ccc(S(=O)(=O)N2CCN(C(c3ccccc3)c3ccccc3)CC2)cc1 [6b, 1-Benzhydryl-4-((4-sulfamoylaminophenyl)sulfonyl)piperazine]",1880 nM,236 nM,359 nM,555 nM
"NS(=O)(=O)Nc1ccccc1S(=O)(=O)N1CCC(C(=O)N2CCN(C(c3ccc(F)cc3)c3ccc(F)cc3)CC2)CC1 [6n, (4-(bis(4-Fluorophenyl)methyl)piperazin-1-yl)(1-((2-sulfamo-ylaminophenyl)sulfonyl)piperidin-4-yl)methanone]",> 10000 nM,3750 nM,590 nM,683 nM
"NS(=O)(=O)Nc1cccc(S(=O)(=O)N2CCN(C(c3ccc(F)cc3)c3ccc(F)cc3)CC2)c1 [6i, 1-(Bis(4-Fluorophenyl)methyl)-4-((3-sulfamoylaminophenyl)sulfonyl)piperazine]",1740 nM,588 nM,389 nM,75 nM
"NS(=O)(=O)Nc1ccccc1S(=O)(=O)N1CCC(C(=O)N2CCN(C(c3ccccc3)c3ccccc3)CC2)CC1 [6e, (4-Benzhydrylpiperazin-1-yl)(1-((2-sulfamoylaminophenyl)sulfonyl)piperidin-4-yl)methanone]",> 10000 nM,879 nM,1360 nM,578 nM
"NS(=O)(=O)Nc1ccccc1S(=O)(=O)NCC(=O)N1CCN(C(c2ccc(F)cc2)c2ccc(F)cc2)CC1 [6k, N-(2-(4-(bis(4-Fluorophenyl)methyl)piperazin-1-yl)-2-oxoethyl)-2-(sulfamoylamino)benzenesulfonamide]",> 10000 nM,1750 nM,1430 nM,338 nM
"NS(=O)(=O)Nc1cccc(S(=O)(=O)N2CCN(C(c3ccccc3)c3ccccc3)CC2)c1 [6a, 1-Benzhydryl-4-((3-sulfamoylaminophenyl)sulfonyl)piperazine]",4680 nM,334 nM,417 nM,66.2 nM
"NS(=O)(=O)Nc1ccccc1S(=O)(=O)N1CCN(C(c2ccc(F)cc2)c2ccc(F)cc2)CC1 [6h, 1-(Bis(4-Fluorophenyl)methyl)-4-((2-sulfamoylaminophenyl)sulfonyl)piperazine]",> 10000 nM,2800 nM,1170 nM,843 nM
"NS(=O)(=O)Nc1cccc(S(=O)(=O)NCC(=O)N2CCN(C(c3ccc(F)cc3)c3ccc(F)cc3)CC2)c1 [6l, N-(2-(4-(bis(4-Fluorophenyl)methyl)piperazin-1-yl)-2-oxoethyl)-3-(sulfamoylamino)benzenesulfonamide]",> 10000 nM,91.4 nM,218 nM,71.1 nM
"NS(=O)(=O)Nc1ccc(S(=O)(=O)N2CCC(C(=O)N3CCN(C(c4ccccc4)c4ccccc4)CC3)CC2)cc1 [6g, (4-Benzhydrylpiperazin-1-yl)(1-((4-sulfamoylaminophenyl)sulfonyl)piperidin-4-yl)methanone]",2540 nM,140 nM,227 nM,601 nM
"NS(=O)(=O)Nc1ccc(S(=O)(=O)N2CCN(C(c3ccc(F)cc3)c3ccc(F)cc3)CC2)cc1 [6j, 1-(Bis(4-Fluorophenyl)methyl)-4-((4-sulfamoylaminophenyl)sulfonyl)piperazine]",4350 nM,274 nM,353 nM,64.6 nM
"NS(=O)(=O)Nc1cccc(S(=O)(=O)N2CCC(C(=O)N3CCN(C(c4ccccc4)c4ccccc4)CC3)CC2)c1 [6f, (4-Benzhydrylpiperazin-1-yl)(1-((3-sulfamoylaminophenyl)sulfonyl)piperidin-4-yl)methanone]",3790 nM,654 nM,576 nM,43.1 nM
"NS(=O)(=O)Nc1cccc(S(=O)(=O)N2CCC(C(=O)N3CCN(C(c4ccc(F)cc4)c4ccc(F)cc4)CC3)CC2)c1 [6o, (4-(bis(4-Fluorophenyl)methyl)piperazin-1-yl)(1-((3-sulfamoylaminophenyl)sulfonyl)piperidin-4-yl)methanone]",1580 nM,497 nM,663 nM,72 nM
"NS(=O)(=O)Nc1ccc(S(=O)(=O)NCC(=O)N2CCN(C(c3ccc(F)cc3)c3ccc(F)cc3)CC2)cc1 [6m, N-(2-(4-(bis(4-Fluorophenyl)methyl)piperazin-1-yl)-2-oxoethyl)-4-(sulfamoylamino)benzene sulfonamide]",4670 nM,106 nM,208 nM,47.8 nM
"NS(=O)(=O)Nc1ccccc1S(=O)(=O)NCC(=O)N1CCN(C(c2ccccc2)c2ccccc2)CC1 [6c, N-(2-(4-Benzhydrylpiperazin-1-yl)-2-oxoethyl)-2-(sulfamoylamino)benzenesulfonamide]",> 10000 nM,931 nM,850 nM,840 nM
"NS(=O)(=O)Nc1ccc(S(=O)(=O)N2CCC(C(=O)N3CCN(C(c4ccc(F)cc4)c4ccc(F)cc4)CC3)CC2)cc1 [6p, (4-(bis(4-Fluorophenyl)methyl)piperazin-1-yl)(1-((4-sulfamo-ylaminophenyl)sulfonyl)piperidin-4-yl)methanone]",4530 nM,398 nM,182 nM,49.1 nM

# Source: publication PMC6041819, “Synthesis of novel benzenesulfamide derivatives with inhibitory activity against human cytosolic carbonic anhydrase I and II and Vibrio cholerae α- and β-class enzymes” (Journal of Enzyme Inhibition and Medicinal Chemistry, 2018)
